Blank lines part the entries; values can stand above or below the molecule they belong to.
Assays:
IRAK1 = target: T1, IRAK1 (Homo sapiens, UniProt P51617); assay: RBC HotSpot Kinase Assay, IRAK1; format: biochemical
T1 construct: purchased Reaction Biology (RBC HotSpot Kinase Assay)
Procedure, shortened: (§1)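 Radiometric filter-binding (HotSpot) activity assay on isolated recombinant kinase, possibly truncated or catalytic domain only, in 20 mM Hepes pH 7.5, 10 mM MgCl2, 1 mM EGTA, 2 mM DTT, 1% DMSO. Compound preincubated 20 min with kinase and substrate, then ^33P-ATP added. Reaction 2 h at room temperature, read by P81 filter binding.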

FLT3 = target: T2, FLT3 (Homo sapiens, UniProt P36888); assay: RBC HotSpot Kinase Assay, FLT3; format: biochemical
T2 construct: purchased Reaction Biology (RBC HotSpot Kinase Assay)
T2 sequence (P36888 564-958 limits assumed): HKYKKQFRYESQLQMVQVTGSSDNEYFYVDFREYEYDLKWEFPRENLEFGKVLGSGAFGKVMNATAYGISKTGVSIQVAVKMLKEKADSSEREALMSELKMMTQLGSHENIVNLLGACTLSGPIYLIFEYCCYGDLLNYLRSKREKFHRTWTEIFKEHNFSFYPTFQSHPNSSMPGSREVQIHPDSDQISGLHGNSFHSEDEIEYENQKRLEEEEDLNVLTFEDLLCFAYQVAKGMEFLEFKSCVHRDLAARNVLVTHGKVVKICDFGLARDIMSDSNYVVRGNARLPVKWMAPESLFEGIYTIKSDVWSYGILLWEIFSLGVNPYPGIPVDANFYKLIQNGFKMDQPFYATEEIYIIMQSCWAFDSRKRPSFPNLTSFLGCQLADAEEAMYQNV
Procedure, shortened: as §1

MOLM14 D835Y cells = assay: MOLM14 D835Y cell viability assay (Cell Titer Glo); format: cell-based
Protocol: (§2) Both cell lines have activated FLT3 receptors, each of which carry additional resistance mutations in the kinase domain (D835Y and F691L, respectively).
(§3) MOLM14 D835Y and MOLM14 F691L cells were grown in RPMI-1640 media supplemented with 20% fetal bovine serum (FBS). For viability/cytotoxicity assessments, cells were seeded into 1536-well white polystyrene tissue culture-treated Greiner plates using a Multidrop Combi dispenser (ThermoFisher), in final volume 5 μL of growth media per well, at a density of 1000 cells per well. After cell addition, 23 nL of test compound were transferred into individual wells (22 doses tested for each test compound, with a 1:2 dilution series starting at 10 μM) via a 1536 pin-tool. Bortezomib (final concentration 2.3 μM) was used as a positive control for cell cytotoxicity. Plates were incubated for 48 hours at standard incubator conditions covered by a stainless steel gasketed lid to prevent evaporation. 48 hours post compound addition, 3 μL of Cell Titer Glo (Promega) were added to each well and plates were incubated at room temperature for 15 minutes with the stainless-steel lid in place. Luminescence readings were taken using a Viewlux imager (PerkinElmer) with a 2 second exposure time per plate.

IRAK4 = target: T3, IRAK4 (Homo sapiens, UniProt Q9NWZ3); assay: RBC HotSpot Kinase Assay, IRAK4; format: biochemical; parameters: purchased Reaction Biology (RBC HotSpot Kinase Assay)
T3 sequence (Q9NWZ3 1-460): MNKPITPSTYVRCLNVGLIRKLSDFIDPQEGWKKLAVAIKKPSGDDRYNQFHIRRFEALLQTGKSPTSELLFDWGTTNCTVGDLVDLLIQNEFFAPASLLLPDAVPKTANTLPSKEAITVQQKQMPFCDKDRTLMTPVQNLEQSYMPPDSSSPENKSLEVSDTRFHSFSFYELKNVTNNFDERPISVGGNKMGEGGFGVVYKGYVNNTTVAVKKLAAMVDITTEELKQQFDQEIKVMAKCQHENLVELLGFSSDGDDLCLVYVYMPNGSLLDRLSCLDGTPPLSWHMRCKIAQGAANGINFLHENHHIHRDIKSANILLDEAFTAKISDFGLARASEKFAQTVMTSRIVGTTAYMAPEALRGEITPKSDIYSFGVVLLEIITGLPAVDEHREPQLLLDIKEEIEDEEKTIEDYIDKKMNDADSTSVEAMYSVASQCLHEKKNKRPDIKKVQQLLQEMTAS
Procedure, shortened: as §1

MOLM14 F691L cells = assay: MOLM14 F691L cell viability assay (Cell Titer Glo); format: cell-based
Protocol: as §2, §3

MOLM14 (D835Y) cells = assay: Combination drug screening, 10 x 10 matrix, cell viability (Cell Titer Glo); format: cell-based; settings: combination with Compound 96, 10 x 10 dataset, 48 hours
Protocol: Briefly, 10 nL of compounds were acoustically dispensed into 1536-well white polystyrene tissue culture-treated plates with an Echo 550 acoustic liquid handler (Labcyte). MOLM14 (D835Y) cells were then added to compound-containing plates at a density of 500-cells/well in 5 μL of medium. A 10-point custom concentration range was used for all listed drugs. Plates were incubated for 48 hours at standard incubator conditions covered by a stainless steel gasketed lid to prevent evaporation. 48 h post compound addition, 3 μL of Cell Titer Glo (Promega) were added to each well and plates were incubated at room temperature for 15 minutes with the stainless-steel lid in place. Luminescence readings were taken using a Viewlux imager (PerkinElmer) with a 2 second exposure time per plate.
However, different methodologies may yield different numerical scores, and different definitions of what constitutes a deviation from mere additivity vs true drug synergy.
However, the utility in certain drug combinations vs others should not be distinguished based on cutoffs between HSA scores, because the score itself is only a relative indicator that is completely dependent on experimental design and is not an absolute number. Furthermore, the concept of what constitutes clinically meaningful drug synergy is something that is still being debated, not only between pharmacologists and physicians, but amongst pharmacologists themselves.

T1 sequence (P51617 whole entry): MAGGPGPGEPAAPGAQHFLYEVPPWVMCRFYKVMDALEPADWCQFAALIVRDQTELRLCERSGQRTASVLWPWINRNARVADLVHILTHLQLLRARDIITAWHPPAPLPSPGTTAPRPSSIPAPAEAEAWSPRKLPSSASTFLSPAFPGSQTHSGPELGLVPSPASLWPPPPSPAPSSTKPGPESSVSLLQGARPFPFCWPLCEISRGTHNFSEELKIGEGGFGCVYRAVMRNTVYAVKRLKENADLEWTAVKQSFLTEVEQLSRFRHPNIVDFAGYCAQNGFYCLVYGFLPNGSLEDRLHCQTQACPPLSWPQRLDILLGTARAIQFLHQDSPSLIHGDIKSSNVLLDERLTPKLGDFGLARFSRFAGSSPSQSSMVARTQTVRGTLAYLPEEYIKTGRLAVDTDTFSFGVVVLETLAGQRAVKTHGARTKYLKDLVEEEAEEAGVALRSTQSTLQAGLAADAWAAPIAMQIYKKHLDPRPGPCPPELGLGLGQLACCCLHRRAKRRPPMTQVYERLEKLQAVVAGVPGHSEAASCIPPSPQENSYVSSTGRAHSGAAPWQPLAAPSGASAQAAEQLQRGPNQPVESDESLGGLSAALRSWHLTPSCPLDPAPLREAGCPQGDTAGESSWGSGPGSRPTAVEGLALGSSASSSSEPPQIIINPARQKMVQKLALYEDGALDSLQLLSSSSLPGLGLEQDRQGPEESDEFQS

Compound: COc1cc2ncc(-c3cccc(N[C@@H]4CCCNC4)n3)n2nc1C1CC1 [Compound 101]
IC50 (IRAK1): 2320 nM
IC50 (FLT3): < 0.5 nM
IC50 (MOLM14 F691L cells; Homo sapiens, MOLM-14, 48 h): 596 nM
IC50 (IRAK4): 11 nM

Compound: COc1cc2ncc(-c3cccc(N[C@H]4CNCC45CC5)n3)n2nc1C1CC1 [Compound 100, (R)-N-(6-(6-cyclopropyl-7-methoxyimidazo[1,2-b]pyridazin-3-yl)pyridin-2-yl)-5-azaspiro[2.4]heptan-7-amine]
IC50 (IRAK1): 1380 nM
IC50 (FLT3): < 0.5 nM
IC50 (MOLM14 D835Y cells; Homo sapiens, MOLM-14, 48 h): 20 nM
IC50 (IRAK4): < 0.5 nM

Compound: COc1cc2ncc(-c3cccc(N[C@@H]4CCCNC4)n3)n2nc1C1(C(F)(F)F)CC1 [Compound 84, (R)-6-(7-methoxy-6-(1-(trifluoromethyl)cyclopropyl)imidazo[1,2-b]pyridazin-3-yl)-N-(piperidin-3-yl)pyridin-2-amine]
IC50 (IRAK1): 536 nM
IC50 (FLT3): 1 nM
IC50 (MOLM14 D835Y cells; Homo sapiens, MOLM-14, 48 h): 179 nM
IC50 (IRAK4): 83 nM

Compound: COc1cc2ncc(-c3cccc(N[C@H]4CNC[C@@H]4C)n3)n2nc1C1(C(F)(F)F)CC1 [Compound 83, 6-(7-methoxy-6-(1-(trifluoromethyl)cyclopropyl)imidazo[1,2-b]pyridazin-3-yl)-N-((3R,4S)-4-methylpyrrolidin-3-yl)pyridin-2-amine]
IC50 (IRAK1): 3670 nM
IC50 (FLT3): 0.8 nM
IC50 (MOLM14 D835Y cells; Homo sapiens, MOLM-14, 48 h): 259 nM
IC50 (IRAK4): 25 nM

Compound: COc1cc2ncc(-c3cccc(N[C@H]4CNC[C@@H]4F)n3)n2nc1C1(C(F)(F)F)CC1 [Compound 82, N-((3S,4S)-4-fluoropyrrolidin-3-yl)-6-(7-methoxy-6-(1-(trifluoromethyl)cyclopropyl)imidazo[1,2-b]pyridazin-3-yl)pyridin-2-amine]
IC50 (IRAK1): 595 nM
IC50 (FLT3): 1 nM
IC50 (MOLM14 D835Y cells; Homo sapiens, MOLM-14, 48 h): 357 nM
IC50 (IRAK4): 18 nM

Compound: CC1(C)CC[C@]2(NC(=O)C(C)(F)F)CC[C@]3(C)[C@H](C(=O)C=C4[C@@]5(C)C=C(C#N)C(=O)C(C)(C)[C@@H]5CC[C@]43C)[C@@H]2C1 [Omaveloxolone]
Sum Excess HSA (MOLM14 (D835Y) cells): 196

Compound: CC1(C)CCC(C)(C)c2cc(NC(=O)c3ccc(C(=O)O)cc3)ccc21 [Tamibarotene]
Sum Excess HSA (MOLM14 (D835Y) cells): 850.4

Compound: CC1(C)CCC(c2ccc(Cl)cc2)=C(CN2CCN(c3ccc(C(=O)NS(=O)(=O)c4ccc(N[C@H](CCN5CCOCC5)CSc5ccccc5)c(S(=O)(=O)C(F)(F)F)c4)cc3)CC2)C1 [Navitoclax (ABT-263), Navitoclax, reference compound]
Sum Excess HSA (MOLM14 (D835Y) cells): −227.3

Compound: F[C@H]1CNCC[C@@H]1Nc1cccc(-c2cnc3ccc(-c4cnn5ccccc45)nn23)n1 [Compound 20, N-((3S,4S)-3-fluoropiperidin-4-yl)-6-(6-(pyrazolo[1,5-a]pyridin-3-yl)imidazo[1,2-b]pyridazin-3-yl)pyridin-2-amine]
IC50 (IRAK1): 3 nM
IC50 (FLT3): < 0.5 nM
IC50 (MOLM14 D835Y cells; Homo sapiens, MOLM-14, 48 h): 333 nM
IC50 (IRAK4): < 0.5 nM

Compound: COc1cc2ncc(-c3cccc(N[C@@H]4CCNC4)n3)n2nc1C1(C(F)(F)F)CC1 [Compound 81, (R)-6-(7-methoxy-6-(1-(trifluoromethyl)cyclopropyl)imidazo[1,2-b]pyridazin-3-yl)-N-(pyrrolidin-3-yl)pyridin-2-amine]
IC50 (IRAK1): 954 nM
IC50 (FLT3): 2 nM
IC50 (MOLM14 D835Y cells; Homo sapiens, MOLM-14, 48 h): 591 nM
IC50 (IRAK4): 25 nM

Compound: COc1c(OCCCN2CCOCC2)ccc2c1N=C(NC(=O)c1cnc(N)nc1)N1CCN=C21 [Copanlisib]
Sum Excess HSA (MOLM14 (D835Y) cells): −542.8

Results, then the molecule that gave them:

IC50 (IRAK1): > 10000 nM
IC50 (FLT3): 9 nM
IC50 (MOLM14 D835Y cells; Homo sapiens, MOLM-14, 48 h): 968 nM
IC50 (IRAK4): 399 nM
Compound: F[C@H]1CNC[C@@H]1Nc1cccc(-c2cnc3cccnn23)n1 [Compound 109, N-((3S,4S)-4-fluoropyrrolidin-3-yl)-6-(imidazo[1,2-b]pyridazin-3-yl)pyridin-2-amine]

IC50 (IRAK1): 383 nM
IC50 (FLT3): < 0.5 nM
IC50 (MOLM14 D835Y cells; Homo sapiens, MOLM-14, 48 h): 109 nM
IC50 (MOLM14 F691L cells; Homo sapiens, MOLM-14, 48 h): 1370 nM
IC50 (IRAK4): 4 nM
Compound: COc1cc2ncc(-c3cccc(N[C@@H]4CCCNC4)n3)n2nc1C(F)F [Compound 117, (R)-6-(6-(difluoromethyl)-7-methoxyimidazo[1,2-b]pyridazin-3-yl)-N-(piperidin-3-yl)pyridin-2-amine]

IC50 (IRAK1): 3710 nM
IC50 (FLT3): 6 nM
IC50 (MOLM14 D835Y cells; Homo sapiens, MOLM-14, 48 h): 591 nM
IC50 (IRAK4): 190 nM
Compound: F[C@H]1CNC[C@@H]1Nc1cccc(-c2cnc3cc(Cl)cnn23)n1 [Compound 110, 6-(7-chloroimidazo[1,2-b]pyridazin-3-yl)-N-((3S,4S)-4-fluoropyrrolidin-3-yl)pyridin-2-amine]

IC50 (IRAK1): 537 nM
IC50 (FLT3): 0.7 nM
IC50 (MOLM14 D835Y cells; Homo sapiens, MOLM-14, 48 h): 49 nM
IC50 (MOLM14 F691L cells; Homo sapiens, MOLM-14, 48 h): 686 nM
IC50 (IRAK4): 37 nM
Compound: COc1cc2ncc(-c3cccc(N[C@H]4CNCC[C@@H]4F)n3)n2nc1-c1cnn(C)c1 [Compound 122, N-((3S,4S)-4-fluoropiperidin-3-yl)-6-(7-methoxy-6-(1-methyl-1H-pyrazol-4-yl)imidazo[1,2-b]pyridazin-3-yl)pyridin-2-amine]

IC50 (IRAK1): 1340 nM
IC50 (FLT3): < 0.5 nM
IC50 (MOLM14 D835Y cells; Homo sapiens, MOLM-14, 48 h): 193 nM
IC50 (MOLM14 F691L cells; Homo sapiens, MOLM-14, 48 h): 1150 nM
IC50 (IRAK4): 45 nM
Compound: COc1cc2ncc(-c3cc(F)cc(N[C@@H]4CCCNC4)n3)n2nc1C1CC1 [Compound 104, (R)-6-(6-cyclopropyl-7-methoxyimidazo[1,2-b]pyridazin-3-yl)-4-fluoro-N-(piperidin-3-yl)pyridin-2-amine]

IC50 (IRAK1): 3470 nM
IC50 (FLT3): 3 nM
IC50 (MOLM14 D835Y cells; Homo sapiens, MOLM-14, 48 h): 326 nM
IC50 (IRAK4): 94 nM
Compound: FC(F)COc1cnn2c(-c3cccc(N[C@H]4CNC[C@@H]4F)n3)cnc2c1 [Compound 114, 6-(7-(2,2-difluoroethoxy)imidazo[1,2-b]pyridazin-3-yl)-N-((3S,4S)-4-fluoropyrrolidin-3-yl)pyridin-2-amine]

IC50 (IRAK1): 774 nM
IC50 (FLT3): 4 nM
IC50 (MOLM14 D835Y cells; Homo sapiens, MOLM-14, 48 h): 1010 nM
IC50 (IRAK4): 131 nM
Compound: F[C@H]1CNC[C@@H]1Nc1cccc(-c2cnc3cc(C4CC4)cnn23)n1 [Compound 111, 6-(7-cyclopropylimidazo[1,2-b]pyridazin-3-yl)-N-((3S,4S)-4-fluoropyrrolidin-3-yl)pyridin-2-amine]

IC50 (IRAK1): 1140 nM
IC50 (FLT3): < 0.5 nM
IC50 (MOLM14 D835Y cells; Homo sapiens, MOLM-14, 48 h): 154 nM
IC50 (MOLM14 F691L cells; Homo sapiens, MOLM-14, 48 h): 2170 nM
Compound: COc1cc2ncc(-c3cccc(N[C@H]4CNCC[C@@H]4F)n3)n2nc1-c1cnn(C(F)F)c1 [Compound 129, 6-(6-(1-(difluoromethyl)-1H-pyrazol-4-yl)-7-methoxyimidazo[1,2-b]pyridazin-3-yl)-N-((3S,4S)-4-fluoropiperidin-3-yl)pyridin-2-amine]

IC50 (IRAK1): 734 nM
IC50 (FLT3): < 0.5 nM
IC50 (MOLM14 D835Y cells; 48 hours): 137 nM
IC50 (MOLM14 F691L cells; 48 hours): 1370 nM
Compound: COc1cc2ncc(-c3cccc(N[C@H]4CNCC[C@@H]4F)n3)n2nc1-c1cnn(C(F)F)c1 [Compound 130, 6-(6-(1-(difluoromethyl)-1H-pyrazol-4-yl)-7-methoxyimidazo[1,2-b]pyridazin-3-yl)-N-((3S,4S)-4-fluoropiperidin-3-yl)pyridin-2-amine]

Reference: US12534469B2 (CHILDREN'S HOSPITAL MEDICAL CENTER, priority 2020, dated 2026)
